Experiment in all cases: DTP human tumour cell line panel, 48 h
Assay [1] deals with A498 renal.
The subject of assay [2] is EKVX NSCLC.
For assay [3], the system named is HCT-15 colon.
Assay [4] has as its system HOP-62 NSCLC.
The test system of assay [5] is IGROV1 ovarian.
In assay [6] the test system is NCI/ADR-RES ovarian.
The test system of assay [7] is OVCAR-8 ovarian.
Assay [8] relates to SNB-19 CNS.
Assay [9] has as its system UACC-62 melanoma.
For assay [10], the system named is UO-31 renal.

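Tested at 5 concentrations; 48 h exposure; 96-well plates; endpoints linearly interpolated, else capped at highest concentration. GI50 is the concentration that inhibits growth by half. At the TGI there is no net growth.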 Where only a bound is given, the exact number is not on record here.

By TGI is commonly meant the concentration giving total growth inhibition. A low value points to more potent growth arrest. For the molecule `CC(CS(=O)(=O)Cc1ccccc1)C(N)=O` (centres undefined), the TGI in assay [1], in assay [2], in assay [3], in assay [4], in [5] and in [6] was greater than 100 µM throughout. The TGI in [7], in assay [8], in assay [9] and in assay [10] was greater than 100 µM each time.

A word on the GI50: it is the concentration giving 50% growth inhibition. Regarding `COc1cc(C2C3=C(COC3=O)N(CCO)c3cc4c(cc32)CCC4)cc(OC)c1O` (centres undefined), the GI50 is 0.131 µM in assay [1]; 1.38 µM in [2]; 1.09 µM in assay [3]; 0.213 µM in assay [4]; 0.159 µM in assay [5]; 2.45 µM in [6]. Further, the GI50 in [7] is 0.365 µM; in [8], 0.318 µM; in [9], 0.134 µM; in assay [10], 0.426 µM. Also, the TGI was 5.64 µM in assay [1]; greater than 32.5 µM in assay [2]; greater than 32.5 µM in assay [3]; greater than 32.5 µM in assay [4]; 11.4 µM in [5]; greater than 21 µM in assay [6]. Moreover, the TGI in assay [7], in assay [8], in [9] and in [10] was greater than 32.5 µM throughout.

For the molecule `CC1(CC(=O)O)OC2CCCCCC2O1` (centres undefined) (tested in a mixture with another compound), the TGI in assay [1], in assay [2], in [3], in assay [4], in assay [5] and in assay [6] was greater than 100 µM throughout. Further, the TGI in [7], in assay [8], in assay [9] and in assay [10] was greater than 100 µM in each case.

Consider `COc1ccc(C2=CC(c3cc(OC)c(OC)c(OC)c3)n3ncnc3N2)cc1` (centres undefined), for which the GI50 in assay [1] was 0.0426 µM; in [2] it was 0.0788 µM; in [3], 0.042 µM; in assay [4], 0.0588 µM; in assay [5] it was 0.0912 µM; in assay [6], 0.0444 µM. Also, the GI50 in [7] is 0.0763 µM; in assay [8] it was 0.0672 µM; in assay [9], 0.0689 µM; in [10], 10 µM. For the same molecule, the TGI in assay [1] was 25.1 µM; in [2] it was greater than 100 µM; in assay [3], greater than 100 µM; in assay [4], 25.2 µM; in assay [5] it was 31.1 µM; in [6], 20.3 µM. Also, the TGI is 21.6 µM in assay [7], greater than 100 µM in assay [8], greater than 100 µM in [9] and 66.4 µM in [10].

With `CC[C@]12C=CCN3CC[C@]4(C(=C(C(=O)OC)C1)Nc1cc(O)ccc14)[C@@H]32`, the GI50 in assay [1] is 18.1 µM; in assay [2] it was 24.6 µM; in assay [3], 14.6 µM; in [4], 17.2 µM; in assay [5], 19.1 µM; in [6] it was 14.4 µM. For the same molecule, the GI50 in assay [7] is 24.5 µM; in assay [8], 18 µM; in assay [9], 7.18 µM; in assay [10], 12.9 µM. Moreover, the TGI in [1] is 36.5 µM; in assay [2], greater than 100 µM; in [3], 36.5 µM; in assay [4] it was 38.9 µM; in assay [5] it was 57.3 µM; in assay [6] it was 33.6 µM. The TGI in assay [7] came to 68.8 µM; in assay [8], 44.2 µM; in assay [9], 22.3 µM; in [10], 25.8 µM.

Consider `CN1CCCC1c1cccnc1.O=C(O)c1ccccc1O.O=C([O-])c1ccccc1[OH2+].O=C([O-])c1ccccc1[OH2+].O=C([O-])c1ccccc1[OH2+].[Mn+2]` (centres undefined), for which the GI50 in assay [1] was greater than 100 µM; in [2] it was greater than 100 µM; in [3] it was greater than 100 µM; in assay [4], greater than 100 µM; in [5], 97.7 µM; in assay [6] it was greater than 100 µM. The GI50 in assay [7], in assay [8], in assay [9] and in assay [10] was greater than 100 µM in each case. Also, the TGI in [1], in assay [2], in assay [3], in assay [4], in [5] and in [6] was greater than 100 µM each time. Also, the TGI in assay [7], in [8], in [9] and in assay [10] was greater than 100 µM in each case.

Turning to `O=C(Oc1c(I)ccccc1=O)c1ccc([N+](=O)[O-])cc1`, the TGI in [1] is 17 µM; in assay [2] it was 28.3 µM; in [3] it was 31.7 µM; in assay [4] it was greater than 100 µM; in assay [5], 29.2 µM; in assay [6] it was greater than 100 µM. In addition, the total growth inhibition concentration (TGI) was found to be 65.1 µM in assay [7], 46.5 µM in assay [8], 51 µM in [9] and 68.9 µM in assay [10].

Regarding `O=C(N[C@@H]1CCCc2ccccc21)[C@H](CCC(=O)N1CCN(C2CCCCC2)CC1)N1C(=O)[C@@H](N2C(=O)OC[C@@H]2c2ccccc2)[C@H]1/C=C/c1ccccc1`, the GI50 in assay [1] is 1.76 µM; in [2] it was 2.52 µM; in assay [3] it was 2.97 µM; in assay [4], 3.87 µM; in assay [5] it was 2.44 µM; in assay [6], 2.78 µM. The GI50 in assay [7] was 4.58 µM; in assay [8], 3.66 µM; in assay [9] it was 1.86 µM; in assay [10] it was 2.01 µM. Besides, the TGI in assay [1] is 5.3 µM; in assay [2] it was greater than 100 µM; in [3] it was 12.3 µM; in [4], 17.4 µM; in assay [5], 41.3 µM; in assay [6], 10.6 µM. The TGI in [7] amounted to 18.9 µM; in assay [8] it was 25.2 µM; in assay [9] it was 3.93 µM; in assay [10] it was 8.68 µM.

As to `O=C(OCc1ccccc1CN1CCOCC1)c1ccc(Br)cc1`, the TGI in assay [1], in [2], in assay [3], in assay [4], in assay [5] and in [6] was greater than 100 µM throughout. The TGI in assay [7], in [8], in assay [9] and in [10] was greater than 100 µM in each case.

As to `COC(=O)[C@H](Cc1ccccc1)NC(=O)c1csc([C@@H](C[C@H](C(C)C)N(C)C(=O)[C@@H](NC(=O)[C@H]2CCCCN2C)C2CC2)OC(C)=O)n1`, the GI50 in assay [1] was 0.0693 µM; in assay [2], 0.119 µM; in assay [3], 0.0915 µM; in assay [4], 0.0749 µM; in assay [5], 0.0452 µM; in assay [6], 2.05 µM. The GI50 in [7] was 0.0898 µM; in [9], 0.247 µM; in assay [10], 0.258 µM. The TGI in assay [1] was 1.67 µM; in assay [2], greater than 25 µM; in assay [3], greater than 25 µM; in assay [4], greater than 25 µM; in [5], greater than 25 µM; in [6], greater than 25 µM. Besides, the TGI in assay [7], in assay [8], in assay [9] and in assay [10] was greater than 25 µM throughout.

The values are drawn from PubChem BioAssay (NCI).
